The results in this text go back to patent US6953786B2, “Compositions comprising plant-derived polyphenolic compounds and inhibitors of reactive oxygen species and methods of using thereof” (The Regents of the University of California, priority 2002, dated 2005).

Residues, ends and D or L forms follow the SMILES beside them. *: point of attachment. Cbz = O=C(OCc1ccccc1)*

Test [1] concerns NF-κB. Description: NF-κB DNA binding activity (EMSA / gel shift). The format is cell-based, human. The note with it: Mia PACA-2, 24 hours, no serum; polyphenols 100 μM, MG-132 20 μM. How it is done: In order to determine the role of activated NF-κB in the regulation of apoptosis caused by the polyphenolic compound, the following assay was conducted. BSp73AS cells were cultured for 6 hours and Mia PACA-2 cells were cultured in the absence of serum or growth factors for 24 hours in the absence (controls) or presence of rutin, quercetin, trans-resveratrol, or genistein, each at 100 μM and 20 μM proteosome inhibitor MG-132. Nuclear proteins were isolated and analyzed for NF-κB DNA binding activity with electrophoretic mobility shift assay (EMSA).
Specifically, aliquots of nuclear extracts with equal amount of protein, about 2 to about 10 μg, were mixed in 20 μl reactions with a buffer comprising 10 mM HEPES (pH 7.6), 50 mM KCl, 0.1 mM EDTA, 1 mM DTT, 10% (vol/vol) glycerol and 3 μg poly[d (I-C)]. After aliquots were equilibrated on ice for 5 minutes, binding reactions were stared by addition of 20-60,000 counts/min (20 fM) of ^32P-labeled DNA probes and allowed to proceed for 25-30 minutes at room temperature or up to 1 hour on ice. The oligonucleotide probe
containing the κB binding motif (underlined) was annealed to the complementary oligonucleotide with a 5′-G overhang and end-labeled using Klenow DNA polymerase I. The samples were electrophoresed at room temperature in 0.5×TBE buffer (1×TBE 89 mM Tris base, 89 mM boric acid and 2 mM EDTA) on nondenaturing 4.5% polyacrylamide gel at 200 V. Gels were dried and directly analyzed in the PhosphorImager (Molecular Dynamics, Sunnyvale, Calif.). The experiment was repeated twice.
To study the effects of combinations of DPI and polyphenolic compounds on serum-induced activation of NF-κB and protection from apoptosis, the following assay was conducted. Mia PACA-2 cells were cultured for 72 hours in the presence of serum with or without 100 μM trans-resveratrol, 15 μM DPI, a combination of trans-resveratrol, 100 μM genistein, or a combination of genistein and DPI. NF-κB binding activity was measured in nuclear extracts by gel shift assay as described above.
To determine the effects of LY29400 and DPI on NF-κB activation, Mia PACA-2 cells were cultured for 72 hours in the presence of serum and 15 μM DPI with or without 50 μM LY294002. NF-κB DNA binding activity was measured in nuclear extracts by gel shift assay as described above.

The subject of test [2] is BSp73AS and Mia PACA-2 cells. Kind of test: Caspase-3 activity and annexin staining with MG-132 (FIG. 14C). The test is classed as cell-based. The note with it: MG-132 20 μM.
Test [3] relates to NF-κB. Kind of test: NF-κB DNA binding activity (EMSA). The format is cell-based, rat. The note with it: BSp73AS, 6 hours; polyphenols 100 μM, MG-132 20 μM. How it is done:
In order to determine the role of activated NF-κB in the regulation of apoptosis caused by the polyphenolic compound, the following assay was conducted. BSp73AS cells were cultured for 6 hours and Mia PACA-2 cells were cultured in the absence of serum or growth factors for 24 hours in the absence (controls) or presence of rutin, quercetin, trans-resveratrol, or genistein, each at 100 μM and 20 μM proteosome inhibitor MG-132. Nuclear proteins were isolated and analyzed for NF-κB DNA binding activity with electrophoretic mobility shift assay (EMSA). Specifically, aliquots of nuclear extracts with equal amount of protein, about 2 to about 10 μg, were mixed in 20 μl reactions with a buffer comprising 10 mM HEPES (pH 7.6), 50 mM KCl, 0.1 mM EDTA, 1 mM DTT, 10% (vol/vol) glycerol and 3 μg poly[d (I-C)]. After aliquots were equilibrated on ice for 5 minutes, binding reactions were stared by addition of 20-60,000 counts/min (20 fM) of ^32P-labeled DNA probes and allowed to proceed for 25-30 minutes at room temperature or up to 1 hour on ice. The oligonucleotide probe containing the κB binding motif (underlined) was annealed to the complementary oligonucleotide with a 5′-G overhang and end-labeled using Klenow DNA polymerase I. The samples were electrophoresed at room temperature in 0.5×TBE buffer (1×TBE 89 mM Tris base, 89 mM boric acid and 2 mM EDTA) on nondenaturing 4.5% polyacrylamide gel at 200 V. Gels were dried and directly analyzed in the PhosphorImager (Molecular Dynamics, Sunnyvale, Calif.). The experiment was repeated twice.
(In general: Mobility shift assays separate free from complexed probe on a gel.)

Take `CC(C)C[C@@H](C=O)NC(=O)[C@H](CC(C)C)NC(=O)[C@H](CC(C)C)NC(=O)OCc1ccccc1` [MG-132, reference compound] (Cbz-Leu-Leu-Leu-aldehyde): the “NF-κB activation (DNA binding)” value in the test on NF-κB [1] and in the test with NF-κB [3] was “blocks NF-κB activation” in each case. The caspase-3 activity result in test [2] is reported as “small increase in caspase-3 activity”. Further, the “apoptosis (annexin staining)” value in test [2] (polyphenols 100 μM) is recorded as “does not increase apoptosis rates to the same extent as trans-resveratrol”.
